Data as given in US11135209B2, “Compositions and methods for inhibiting protein kinases” (UNIVERSITY OF HOUSTON SYSTEM, priority 2017, dated 2021).

How the values were obtained:
[1] = target: Recombinant RIPK2 protein (Homo sapiens, UniProt O43353); assay: Receptor Interacting Protein Kinase 2 (RIPK2) enzyme assay (ADP-Glo); assay type: biochemical; conditions: for inhibition at 0.5 µM: Conc. 500 nM
Procedure: Receptor Interacting Protein Kinase 2 (RIPK2) Enzyme Assay
Recombinant RIPK2 protein (20 ng per reaction) is diluted in the reaction buffer consisting of 40 mM Tris (pH 7.5); 20 mM MgCl2; 0.1 mg/ml BSA; 50 μM DTT. Diluted protein is added to low volume white 384 well plates (2 μL/well). Inhibitors are diluted in reaction buffer (final 25% DMSO), 1 μL is added to each well and incubated 5 min at room temperature. Reactions are initiated by the addition of 2 μL of 100 μM ATP and 1 mg/ml RS repeat peptide (SignalChem) in the reaction buffer. Plates are sealed with plastic coverslips and incubated at room temperature for 2 h. Reactions are stopped by the addition of 5 μL of ADP-Glo reagent (Promega) and ADP generation reaction is performed for 40 min at room temperature. Luminescence signal is generated by the addition of 10 μL of Kinase detection reagent (Promega) for 30 min at room temperature Luminescence signals are determined using appropriate luminescence plate-reader (typical integration time 0.3-1 sec). To calculate percent inhibition, average background signal is subtracted from test well and maximal signal wells. Inhibition, %=(1−(test signal/maximal signal))*100. The percent inhibition at a specified concentration is determined or IC50 values are calculated based on a dose range of inhibitor concentrations using non-linear regression in GraphPad Prism software.

[2] = tested on: NOD2 cellular signaling in HEK-Blue cells expressing human NOD2; assay: NOD2 cell signaling assay (HEK-Blue, NFkB-SEAP reporter, L18-MDP stimulated); assay type: cell-based; conditions: read-out: IC50 (nM) HEKBlue RIPK2
Procedure: NOD2 Cell Signaling Assay.
HEK-Blue cells expressing human NOD2 and NFkB-SAEP reporter (Invivogen) are seeded into 96 well clear plates at 7.5×10^3 cells per well in 100 μL of DMEM media supplemented with 10% FBS and 1% antibiotic-antimycotic mix. Cells are allowed to attach for 48 h in 5% CO2 tissue culture incubator at 37° C. On the morning of the experiment, media in the wells is replaced with 100 pt of HEK-Blue detection media (Invivogen). Cells are treated with the inhibitors, diluted in DMSO (0.5 μL per well) for 15 min in 5% CO2 tissue culture incubator at 37° C. After that, cells are stimulated by the addition of 1 ng/well L18-MDP (Invivogen). Cells are incubated in 5% CO2 tissue culture incubator at 37° C. for 8 h and absorbance, corresponding to the SEAP in the media, is determined in Wallac3V plate reader (Perkin Elmer). Inhibition, %=(1−((sample signal-unstimulated and DMSO treated cells)/(L18-MDP stimulated and DMSO treated cells−unstimulated and DMSO treated cells)))*100. IC50 values are calculated based on a dose range of inhibitor concentrations using non-linear regression in GraphPad Prism software.

human ALK2 = target: T1, human ALK2 (Homo sapiens, UniProt Q04771); assay: Activin-Like Kinase 2 (ALK2) enzyme assay; assay type: biochemical
T1 sequence (Q04771 21-509): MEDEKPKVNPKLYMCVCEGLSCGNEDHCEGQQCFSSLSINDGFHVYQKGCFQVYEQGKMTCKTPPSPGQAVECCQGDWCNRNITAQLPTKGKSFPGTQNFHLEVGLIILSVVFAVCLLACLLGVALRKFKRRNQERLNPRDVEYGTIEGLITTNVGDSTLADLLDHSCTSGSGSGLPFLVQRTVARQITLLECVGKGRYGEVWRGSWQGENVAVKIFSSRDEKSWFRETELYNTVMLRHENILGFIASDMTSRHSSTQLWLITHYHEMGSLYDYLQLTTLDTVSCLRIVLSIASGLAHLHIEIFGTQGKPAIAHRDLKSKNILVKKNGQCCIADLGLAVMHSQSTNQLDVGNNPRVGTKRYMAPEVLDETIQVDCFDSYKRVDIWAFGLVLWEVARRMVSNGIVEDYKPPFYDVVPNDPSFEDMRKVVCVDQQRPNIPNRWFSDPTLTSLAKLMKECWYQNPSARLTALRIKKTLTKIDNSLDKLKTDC
Procedure: Activin-Like Kinase 2 (ALK2) Enzyme Assay
Enzyme inhibitory activity was evaluated in a standard kinase enzyme assay by incubating human ALK2 with the protein substrate casein (1 mg/mL) and γ-^33ATP (10 μM) in the presence of various concentrations of test compounds (10 nM-100 μM). After 30 min the amount of ^33P-casein was determined.

Sequence of Recombinant RIPK2 protein (O43353 whole entry, species assumed): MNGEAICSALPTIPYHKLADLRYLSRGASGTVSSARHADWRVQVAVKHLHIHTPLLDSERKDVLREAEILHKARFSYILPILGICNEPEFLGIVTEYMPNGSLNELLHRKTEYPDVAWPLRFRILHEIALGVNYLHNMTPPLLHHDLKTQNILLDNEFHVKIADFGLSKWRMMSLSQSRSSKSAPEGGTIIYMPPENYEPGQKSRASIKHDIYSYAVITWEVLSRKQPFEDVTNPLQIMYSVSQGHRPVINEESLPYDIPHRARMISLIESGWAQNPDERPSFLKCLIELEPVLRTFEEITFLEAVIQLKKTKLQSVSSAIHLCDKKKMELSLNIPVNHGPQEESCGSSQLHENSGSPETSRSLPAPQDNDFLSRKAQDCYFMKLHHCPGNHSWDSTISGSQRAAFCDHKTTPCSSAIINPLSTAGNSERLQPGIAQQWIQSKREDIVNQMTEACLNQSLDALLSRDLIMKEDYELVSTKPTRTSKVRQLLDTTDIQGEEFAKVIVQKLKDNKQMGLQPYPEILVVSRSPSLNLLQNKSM

SMILES | inhibition at 0.5 µM [1] [%] | IC50 (human ALK2) [nM] | IC50 [1] [nM] | inhibition at 0.25 µM ([1]; Conc. 250 nM) [%] | IC50 [2] [nM]
COc1cc(NS(C)(=O)=O)cc(-c2cc(-c3ccc(N4CCNCC4)cc3)cnc2N)c1 [CSLP3] |  | > 1 | > 10 |  | > 100
CCCS(=O)(=O)Nc1cc(OC)cc(-c2cc(-c3ccc(N4CCNCC4)cc3)cnc2N)c1 [CSLP6] |  | > 1 | > 10 |  | > 100
COc1cc(NS(=O)(=O)C(C)C)cc(-c2cc(-c3ccc(N4CCNCC4)cc3)cnc2N)c1 [CSLP8] |  | > 1 | > 10 |  | > 100
COc1cc(NS(=O)(=O)C2CC2)cc(-c2cc(-c3ccc(N4CCNCC4)cc3)cnc2C)c1 [CSLP9, N-(3-Methoxy-5-(2-methyl-5-(4-(piperazin-1-yl)phenyl)pyridin-3-yl)phenyl)cyclopropanesulfonamide] | 76 |  |  |  | > 1000
CCCS(=O)(=O)Nc1cc(OC)cc(-c2cc(-c3ccc(N4CCNCC4)cc3)cnc2C)c1 [CSLP10, N-(3-Methoxy-5-(2-methyl-5-(4-(piperazin-1-yl)phenyl)pyridin-3-yl)phenyl)propane-1-sulfonamide] | 84 | > 10 | > 100 |  | > 1000
COc1cc(NS(=O)(=O)CC(C)C)cc(-c2cc(-c3ccc(N4CCNCC4)cc3)cnc2N)c1 [CSLP12, N-(3-(2-Amino-5-(4-(piperazin-1-yl)phenyl)pyridin-3-yl)-5-methoxyphenyl)-2-methylpropane-1-sulfonamide] |  | > 1 | > 10 |  | > 100
CCS(=O)(=O)Nc1cc(OC)cc(-c2cc(-c3ccc(N4CCNCC4)cc3)cnc2Cl)c1 [CSLP14] | 86 | > 10 | > 100 |  | > 1000
COc1cc(NS(=O)(=O)C(C)C)cc(-c2cc(-c3ccc(N4CCNCC4)cc3)cnc2C)c1 [CSLP16, N-(3-Methoxy-5-(2-methyl-5-(4-(piperazin-1-yl)phenyl)pyridin-3-yl)phenyl)propane-2-sulfonamide] | 85 | > 100 | > 10 |  | > 100
CCCS(=O)(=O)Nc1cc(-c2cc(-c3ccc(N4CCNCC4)cc3)cnc2N)ccc1OC [CSLP18] |  | > 1000 | > 10 |  | > 100

Continued, in another order:

inhibition at 0.5 µM [1] [%] | IC50 (human ALK2) [nM] | IC50 [1] [nM] | inhibition at 0.25 µM ([1]; Conc. 250 nM) [%] | SMILES | IC50 [2] [nM]
< 0 | > 100000 |  |  | CCCS(=O)(=O)Nc1ccc(-c2cc(-c3ccc(N4CCNCC4)cc3)cnc2C)cc1OC [CSLP1, N-(2-methoxy-4-(2-methyl-5-(4-(piperazin-1-yl)phenyl)pyridin-3-yl)phenyl)propane-1-sulfonamide] | > 1000
 | > 10 | > 100 | 39 | COc1cc(NS(C)(=O)=O)cc(-c2cc(-c3ccc(N4CCNCC4)cc3)cnc2C)c1 [CSLP2, N-(3-Methoxy-5-(2-methyl-5-(4-(piperazin-1-yl)phenyl)pyridin-3-yl)phenyl)methanesulfonamide] | > 1000
 |  | > 10 |  | CCS(=O)(=O)Nc1cc(OC)cc(-c2cc(-c3ccc(N4CCNCC4)cc3)cnc2N)c1 [CSLP7] | > 100
 |  | > 10 |  | COc1cc(NS(=O)(=O)C2CC2)cc(-c2cc(-c3ccc(N4CCNCC4)cc3)cnc2N)c1 [CSLP11, N-(3-(2-Amino-5-(4-(piperazin-1-yl)phenyl)pyridin-3-yl)-5-methoxyphenyl)cyclopropanesulfonamide] | > 100
73 | > 10 | > 100 |  | CCS(=O)(=O)Nc1cc(OC)cc(-c2cc(-c3ccc(N4CCNCC4)cc3)cnc2C)c1 [CSLP15, N-(3-Methoxy-5-(2-methyl-5-(4-(piperazin-1-yl)phenyl)pyridin-3-yl)phenyl)ethanesulfonamide] | > 1000
86 | > 10 | > 10 |  | COc1cc(NS(=O)(=O)CC(C)C)cc(-c2cc(-c3ccc(N4CCNCC4)cc3)cnc2C)c1 [CSLP17, N-(3-Methoxy-5-(2-methyl-5-(4-(piperazin-1-yl)phenyl)pyridin-3-yl)phenyl)-2-methylpropane-1-sulfonamide] | > 1000
